The record followed here is US20230399295A1, “COMPOSITIONS FOR INCREASING TISSUE REGENERATION AND DELAYING OR REDUCING GRANULOMA FORMATION” (THE BRIGHAM AND WOMEN'S HOSPITAL, INC., priority 2020, published 2023).

Data set [1] concerns Planaria (Dugesia japonica). Nature of the data set: Planaria regeneration after surgical injury. The class given is in vivo. The protocol: Planaria were surgically injured post-ocular and received either vehicle (0.1% ethanol) or 10 nM 4,5-RCTR1 one-hour post-injury and imaged daily for six days. A) Representative images of Planaria regeneration from Day 1-6 post-surgical injury. B) Tissue regeneration indices (μm) from Day 1-6 post-surgically injured Planaria. C) Tissue regeneration rate (TRR, μm/day) is the rate (area of tissue regeneration/days at TRI50) to achieve 50% tissue regeneration after surgical injury. n=6 Planaria per group per day. Data represented as mean±SEM. Unpaired two-tailed Student's t-test. *p<0.05, **p<0.01, ***p<0.001, and ****p<0.0001 versus vehicle. Planaria (Dugesia japonica) were kept in water (Poland Spring, Poland, ME) at 20° c. All animals were starved for 7 days prior to surgery. Planaria were surgically injured post-ocularly and received either vehicle (0.1% ethanol) or 10 nM 4,5-RCTR1 in water one-hour post-injury. Tissue regeneration was monitored daily for six days via a Zeiss Axiovert 40 CFL Microscope (Jena, Germany) equipped with a Lumenera Infinity 3 Camera (Ottawa, Canada) running Image-Pro Plus (Version 7.0.0.591, Media Cybernetics, Rockville, MD, USA). Regenerated tissue was quantified using ImageJ software (NIH). The tissue regeneration index (TRI) normalizes the total area of regenerated tissue by the post-ocular width. The TRI50 is the amount of time it takes to reach 50% of the maximum […]. […] FIGS. 2A, 2B and 2C: Planaria were surgically injured post-ocular and received either vehicle (0.1% ethanol) or 4,5-RCTR1 one-hour post-injury and imaged daily for six days. 2A) Representative images of Planaria regeneration from Day 1-6 post-surgical injury. 2B) Tissue regeneration indices (μm) from Day 1-6 post-surgically injured Planaria. 2C) Tissue regeneration rate (TRR, μm/day) is the rate (area of tissue regeneration/days at TRI50) to achieve 50% tissue regeneration after surgical injury. n=6 Planaria per group per day. Data represented as mean±SEM. Unpaired two-tailed Student's t-test. *p<0.05, **p<0.01, ***p<0.001, and ****p<0.0001 versus vehicle.

The subject of another data set is human PBMCs. The data set can be described thus: Granuloma assay: human PBMCs with E. coli total protein extract-coupled sepharose beads. Format: cell-based. Particulars: single treatment 10 nM at time 0; scoring 0-4 at day 3; versus vehicle. As to the method:
FIG. 3: Resolvin (Rv) Peptido-Lipids Delay Human Granuloma Formation. Freshly isolated human PBMCs were incubated with E. coli total protein extract covalently coupled CNBr-activated sepharose beads and received a single treatment of either vehicle (0.1% methanol or ethanol), 10 nM RvD3, 10 nM RCTR1, or 10 nM 4,5-RCTR1 at time 0 and incubated for 6 days. A) Scoring of day 3 granuloma severity post-single treatment with either vehicle (0.1% methanol or ethanol), 10 nM RvD3, 10 nM RCTR1, or 10 nM 4,5-RCTR1. n=3 individual human donors. Mean±SEM. Unpaired two-tailed Student's t-test. **p<0.01, ***p<0.001 versus vehicle. B) Representative images of granuloma formation on day 3 after a single treatment with either vehicle (0.1% methanol or ethanol), 10 nM RvD3, 10 nM RCTR1, or 10 nM 4,5-RCTR1. […]
E. coli (Serotype: 06:K2:H1) was grown overnight in Luria broth in an orbital shaker (400 rpm) at 37° C. […] Supernatant was taken before and after the coupling reaction and measured for protein content by BCA assay (Thermo Fisher Scientific) to determine the efficiency of the reaction. […]
Freshly isolated PBMCs (1×10^6 cells/well) were treated with either vehicle (0.1% ethanol), RvD3 (10 nM), RCTR1 (10 nM) or 4,5-RCTR1 (10 nM) and E. coli total protein lysate-coated CNBr-activated sepharose beads simultaneously in 1 mL complete RPMI-1640. […] Granulomas were scored based on formation progression. […]

Data set [2] can be described thus: Half-life in the body (statement only, no method). The settings on record: in vivo.

SMILES strings stand for the structures.

For `CC/C=C\C[C@H](O)/C=C/C=C\C\C=C/C=C/C=C/[C@@H](SC[C@H](NC(=O)CC[C@H](N)C(=O)O)C(=O)NCC(=O)O)[C@@H](O)CCC(=O)O` [4,5-RCTR1, 5-glutathionyl, 4,17-hydroxy-docosahexaenoic acid], in data set [1] (in vivo), the “amount of tissue regenerated” value is reported as “increases the amount of tissue regenerated” and the “time required for tissue regeneration” value is on record as “accelerates the time required for tissue regeneration”. Also, the “regenerative action / planaria regeneration” value in data set [1] (surgically injured post-ocular, 10 nM one-hour post-injury, imaged daily for six days, versus vehicle) is reported as “regenerative action”. Moreover, the granuloma formation entry in the data set with human PBMCs is on record as “significantly delays granuloma formation”. The “half-life in the body” value in data set [2] is listed as “relatively sort half-life”.
